Test results: article PMC5908160, “Inhibition of sperm motility in male macaques with EP055, a potential non-hormonal male contraceptive” (PLoS ONE, 2018)

How the values were obtained:
[1] = EP055 testis, epididymis and plasma levels in cynomolgus males after i.v. infusion; format: in vivo, Macaca fascicularis; conditions: 63.25 mg/kg i.v.
Source text: Evaluation of the effects of an i.v. infusion of EP055 on male cynomolgus macaque reproductive system was done by Sinclair Research Center, LLC. (Study No: S14574). This study was reviewed and approved by the Sinclair IUCAC committee and complied with all applicable sections of USDA Policy 12 and the Final Rules of the Animal Welfare Act regulation (9 CFR). This study used 6 naïve cynomolgus males (3-4 yrs old, 4 kg or less). Doses of EP055 in 5% DMSO-PBS, pH 7.6 or vehicle control were infused by i.v. at 63.25 mg/kg. The infusion rate was 4 ml/min. Plasma and tissues (epididymis and testis) were collected at 2 hr or 6 hr and immediately frozen on dry ice. Samples were stored at -80 °C until processing. Half-life was approximated using the 2 hr and 6 hr points and an estimation of the initial plasma level using the initial dose of […], the circulating blood volume of 65 ml/kg, average hematocrit of 41.7 (S2 Table) and average animal size (3.72 kg for n=4).
Semen or tissue samples were thawed at room temperature. PBS at pH 7.6 was added to each sample at a ratio of 2:1 and sonicated in an ice chilled bath for 5 minutes before homogenization using a Polytron unit (Kinematica AG, Lucerne, Switzerland). An aliquot (25 uL) of each sample homogenate was processed as described for plasma samples.

human sperm = experiment: CASA (Computer Assisted Sperm Analysis) assay of human sperm motility; format: cell-based; conditions: n = 4 donors, read-out: average relative motility index (RMI) IC50
Procedure: Human semen samples were obtained from the Department of Obstetrics and Gynecology, University of North Carolina Memorial Hospital, Chapel Hill, NC. […] Semen samples were allowed to liquefy for 30 minutes and subjected to standard semen analysis to determine acceptability before freezing. All samples were stored in liquid nitrogen, and de-identified by the Department of Obstetrics and Gynecology, University of North Carolina Memorial Hospital, Chapel Hill, NC before further processing. A density gradient (Isolate catalog number 99264, Irving Scientific, Irving CA, or SpermCare catalog number 2221 and 2222, InvitroCare Inc., Frederick MD) was used to prepare spermatozoa for further analysis. At least 3 independent experiments were done per assay, each using a single donor.
Computer Assisted Sperm Analysis (CASA) was conducted as previously described. Briefly sperm were washed after the density gradient with EP buffer-0.4% BSA and resuspended in modified M16 for compound treatments. Sperm were diluted to 5 x 10^6/mL in 12x75 mm glass tubes with the appropriate treatment and incubated at 37°C in 5% CO2. […] The relative mobility index (RMI) is a measure of the effect of compound on sperm and is calculated as the VSL x %normal motility and normalized to the appropriate DMSO control.

[2] = EP054/EP055 plasma half-life in cynomolgus male macaques; design: species or system Macaca fascicularis; conditions: cynomolgus monkey, in vivo, iv, 1 mg/kg, summary of both studies
Procedure: Half-life measurements for EP054/EP055 were done by Sinclair Research Center, LLC (SRC) (Study No. S14109, Auxvasse, MO). This study was reviewed and approved by the Sinclair IUCAC committee and complied with all applicable sections of USDA Policy 12 and the Final Rules of the Animal Welfare Act regulation (9 CFR). This study used 3 naïve cynomolgus (Macaca fascicularis) males (3-4 yrs old, 4 kg or less). Doses of EP054 in 3% DMSO-PBS, pH 7.6 were infused by i.v. at 1.0 mg/kg. The infusion rate was 4 ml/min. Plasma samples were collected at 0, 5, 15, 30 min and 1, 4, 8 and 24 hours, and immediately frozen on dry ice. Samples were stored at -80 °C until processing.
Sample preparation and LC-MS/MS analysis were done by OpAns LLC (Durham, NC). Plasma samples (both rat and macaque) were thawed at room temperature and processed by adding 160 µL of methanol (including 10 µL internal standard) to 25 µL of the sample. Samples were vortexed for 5 minutes, centrifuged at 2684 x g for 5 minutes. 50 µL of supernatant was removed for analysis by HPLC-MS/MS.
Therefore, samples were analyzed for the presence of EP055.

EPPIN = EPPIN (Homo sapiens, UniProt O95925); experiment: AlphaScreen assay of a-EAb binding to EPPIN; conditions: n = 4, read-out: IC50, inhibition of a-EAb binding to EPPIN
Procedure: The AlphaScreen® assay was carried as previously described. Briefly, recombinant histidine-tagged recombinant EPPIN was pre-incubated with Ni-NTA chelate donor beads (catalog number AS101, Perkin Elmer, Waltham MA) and anti-Eppin 007 antibody was pre-incubated with Protein A acceptor beads (catalog number 6760136, Perkin Elmer, Waltham MA) for 30 minutes. Equal volumes of donor and acceptor bead mixtures were pipetted into white opaque 384-well microplates (OptiPlate-384; PerkinElmer, Waltham, MA) in a final volume of 30 μL. Plates were covered with top seal and transferred to a Synergy 2 Multiplatform automated plate reader (Biotek, Winooski, VT). After shaking for 2 min, plates were read with an excitation 680/30 filter, an emission 570/100 filter and data acquired using Gen5 software (Biotek). Each set of samples was pipetted in 4 replicates. […] A specific signal for each time point was calculated by subtracting the background signal (obtained in the absence of EPPIN) from its respective total signal. […] Non-specific interactions of compound with assay components were measured at the same time with the IgG detection kit ([…] biotinylated rabbit IgG) to generate the bead interaction: 10 μg/ml donor and acceptor beads. […]

Chain of EPPIN (O95925 22-133): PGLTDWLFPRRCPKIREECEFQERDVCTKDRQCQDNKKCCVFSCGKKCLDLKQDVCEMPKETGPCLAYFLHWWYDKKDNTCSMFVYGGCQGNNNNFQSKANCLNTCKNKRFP

COC(=O)NNc1nc(Nc2ccc(NC(C)=O)c(O)c2)nc(SCC(=O)O)n1 [EP055]
epididymis versus testis level (ug/mg of tissue) ([1]; 2 and 6 hours): significantly (p < 0.05) more EP055 (ug/mg of tissue) in the epididymis after 2 hours but not after 6 hours | total amounts in testis versus epididymis ([1]; 2 and 6 hours): not significantly different at 2 and 6 hours | presence in testis and epididymis ([1]; 2 and 6 hours post-infusion): detected in testis and epididymis two hours and six hours post-infusion | half-life ([1]; cynomolgus monkey, iv, extrapolated from 2 hr and 6 hr points and calculated initial plasma concentration, read-out: estimated plasma half-life (t1/2) in target tissue experiment): 11.9 min | IC50 (human sperm): 200 µM | half-life [2]: 10 to 12 min | IC50 (EPPIN): 1120 µM
